Columns and labels:
[1] = test system: rat coronary artery occlusion model; experiment: Test for comparative effect on organ failure (versus human Cu-Zn SOD); type: in vivo; settings: 5 mg/kg intravenously before occlusion and once daily for 5 days; dissection after 10 days; control Ringer's solution with human Cu-Zn SOD
Protocol: A rat coronary artery occlusion model was subjected to systemic ischemia for 5 minutes, followed by reperfusion. When the level of free radical-dependent chemiluminescence in the peripheral blood was measured using a chemical luminescence manufactured by Showa Denko K. K. from the start of this experiment, a significant increase in the level of free radical was observed from immediately after the initiation of reperfusion. In a test group, the injectable solution of Example 2 was intravenously administered to the rat at 5 mg/kg at 15 minutes before the occlusion of the coronary artery of the rat in advance, and in a control group, a Ringer's solution supplemented with human Cu—Zn SOD was injected in the same manner as in the test group. Also after the initiation of reperfusion, the above pharmaceutical composition of the present invention was injected at the same dose once daily for 5 days, and after 10 days, dissection was carried out, and cardiac, hepatic, renal, pancreatic and cystic cell necrosis indices were determined using a 45 Ca-autoradiography/image analyzer.

[2] = test system: human fibrosarcoma cell line HT1080; experiment: Test for cell migration (cell haptotaxis), Boyden double chamber; type: cell-based; settings: HT1080, administered at 300 μM; coulometry and HPLC with ECD
Protocol: A Boyden double chamber was used, in which a porous film with 8 μm pores was placed, the upper surface of the porous film was coated with Matrigel as a reconstituted basement membrane, the lower surface of the porous film was coated with fibronectin as an extracellular matrix. […] Further, the concentration of ascorbic acid present in the cells was determined by coulometry and HPLC with ECD.

[3] = test system: Bovine aortic endothelial cells BAE2; settings: 22 h, 50 μM
Protocol: Bovine aortic endothelial cells BAE2 were inoculated at a cell density of 8×10^4/cm^2, and after 18 hours, each of a fullerene, ascorbic acid and the fullerenes of the invention of this application of the formulation Nos. 1 to 13 shown in the above Table 1 was administered at a concentration of 50 μM which falls within the range of the level of the respective substances in the normal human blood. After 22 hours, the amounts of fullerenes and ascorbic acid present in the cells were determined by coulometry and HPLC (high-performance liquid chromatography) with ECD (electrochemical detection). The water content in the cells was measured by gas chromatography using 14C-labeled polyethylene glycol and found to be 0.598 μL/cell.

[4] = Stability test in aqueous solution (HPLC residual ratio); type: physicochemical; settings: 0.1% aqueous solution in purified water, room temperature
Protocol: A difference in the stabilities of PVP/fullerene (molecular weight of PVP: 60,000), a fullerene monoester, and salts of a fullerene monoester in an aqueous solution (a storage test at room temperature for 10 days) is shown in Table 7. […] Incidentally, the stability was evaluated by determining the residual ratio of the above substance using the HPLC method by leaving a 0.1% aqueous solution of the above substance (in purified water) at room temperature for 10 days.

Molecule	necrosis of cardiac, hepatic, renal, pancreatic and cystic cells (45Ca-autoradiography/image analyzer) [1]	concentration of ascorbic acid present in the cells [2] [µM]	concentration in the cells [3] [µM]	concentration in the cells relative to that outside the cells [3] [times]	Residual ratio after 10 days (%) [4] [%]
human Cu—Zn SOD: human Cu—Zn SOD added to Ringer's solution for the control group	delayed cell death	–	–	–	–
O=C1O[C@H]([C@@H](O)CO)C(O)=C1O [Ascorbic acid]	–	103	60	1.2	0

Source: patent publication US20080206222A1, “Preventive/Therapeutic Composition For Free Radical Disease” (priority 2004, published 2008)
